Results on one compound are retold here after PMC4220016, “The binding characteristics and orientation of a novel radioligand with distinct properties at 5-HT3A and 5-HT3AB receptors” (Neuropharmacology, 2014).

Assay [1] concerns the target T1, 5-HT3A receptors (Homo sapiens, UniProt P46098).
T1 sequence (P46098 24-478): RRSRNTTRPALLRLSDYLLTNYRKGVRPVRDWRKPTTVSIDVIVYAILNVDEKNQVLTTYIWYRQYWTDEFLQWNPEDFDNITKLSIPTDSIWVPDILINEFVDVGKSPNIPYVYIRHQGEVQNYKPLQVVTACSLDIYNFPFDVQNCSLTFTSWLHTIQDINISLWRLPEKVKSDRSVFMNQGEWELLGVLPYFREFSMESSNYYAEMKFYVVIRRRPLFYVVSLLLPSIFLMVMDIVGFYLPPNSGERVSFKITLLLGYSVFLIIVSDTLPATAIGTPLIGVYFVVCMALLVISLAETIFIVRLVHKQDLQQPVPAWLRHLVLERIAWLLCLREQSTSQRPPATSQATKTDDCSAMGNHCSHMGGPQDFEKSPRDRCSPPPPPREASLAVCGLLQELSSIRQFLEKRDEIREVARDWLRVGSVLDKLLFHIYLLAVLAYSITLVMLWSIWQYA
Briefly: Kinetic measurements (association, dissociation) at 5-HT3A receptors. On the set-up: expressed in transfected cells; host or cells: HEK 293. To be noted: calculated from kinetic rates, Equ (4), read-out: Kd(nM) (kon/koff). Type of assay: binding.

The target of a further assay is T2, 5-HT3A receptor E236C (Homo sapiens, UniProt P46098, E231C).
T2 construct: expressed in transfected cells; host or cells: HEK 293
T2 sequence (P46098 24-478 E231C): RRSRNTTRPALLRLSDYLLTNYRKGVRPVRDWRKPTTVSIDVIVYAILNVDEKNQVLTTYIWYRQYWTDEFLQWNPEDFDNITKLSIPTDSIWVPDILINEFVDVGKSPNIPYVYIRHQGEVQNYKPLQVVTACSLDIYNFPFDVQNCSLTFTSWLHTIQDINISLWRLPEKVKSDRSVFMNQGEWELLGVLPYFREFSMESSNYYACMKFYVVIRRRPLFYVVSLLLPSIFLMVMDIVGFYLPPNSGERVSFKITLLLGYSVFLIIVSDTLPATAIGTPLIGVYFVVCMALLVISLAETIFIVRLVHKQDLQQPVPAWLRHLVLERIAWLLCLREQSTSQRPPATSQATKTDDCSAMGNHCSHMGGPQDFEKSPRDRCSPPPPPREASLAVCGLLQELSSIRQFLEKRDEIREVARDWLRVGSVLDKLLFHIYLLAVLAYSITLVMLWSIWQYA
Briefly: Saturation binding of [^3H]VUF10166 at 5-HT3A receptor mutant. To be noted: Loop C, read-out: Kd (nM) Mean ± SEM. Here is the method:
(§1) Mutagenesis was performed using the QuikChange method (Agilent Technologies Inc., California, USA) on human 5-HT3A cDNA (accession number: P46098) cloned into pcDNA3.1 (Invitrogen, Paisley, UK). Cysteine residues were substituted for amino acids throughout each of the binding loops A–E (Fig. 1). To facilitate comparisons with previous work, we use the numbering of the equivalent residues in the mouse 5-HT3A subunit; for human numbering 5 should be subtracted from each residue number.
(§2) All data were analysed using GraphPad Prism 4.03.

For the next assay, the target named is T3, 5-HT3A receptor H185C (Homo sapiens, UniProt P46098, H180C).
T3 construct: expressed in transfected cells; host or cells: HEK 293
T3 sequence (P46098 24-478 H180C): as the sequence (P46098 24-478 E231C) above, with H157C, C208E counted along it
The description is as above. To be noted: H185C, Loop B; read-out: Kd (nM) Mean ± SEM. Here is the method:
as §1, §2

In the next assay the target is T4, 5-HT3A receptor T181C (Homo sapiens, UniProt P46098, T176C/T181C).
T4 construct: expressed in transfected cells; host or cells: HEK 293
T4 sequence (P46098 24-478 T176C/T181C): as the sequence (P46098 24-478 E231C) above, with T153C, T158C, C208E counted along it
Described as above. To be noted: Loop B, read-out: Kd (nM) Mean ± SEM. Here is the method:
as §1, §2

The target in another assay is T5, 5-HT3A receptor F226C (Homo sapiens, UniProt P46098, F221C).
T5 construct: expressed in transfected cells; host or cells: HEK 293
T5 sequence (P46098 24-478 F221C): as the sequence (P46098 24-478 E231C) above, with F198C, C208E counted along it
Described as above. The following applies: F226C, Loop C; read-out: Kd (nM) Mean ± SEM. Here is the method:
as §1
(§3) All data were analysed using GraphPad Prism 4.03. […].

Another assay addresses T6, 5-HT3A receptor L126C (Homo sapiens, UniProt P46098, L121C).
T6 construct: expressed in transfected cells; host or cells: HEK 293
The assay is described as above. To be noted: L126C, Loop A; read-out: Kd (nM) Mean ± SEM. Here is the method:
as §1, §3

The target of another assay is T7, 5-HT3A receptor Y153C (Homo sapiens, UniProt P46098, Y148C).
T7 construct: expressed in transfected cells; host or cells: HEK 293
T7 sequence (P46098 24-478 Y148C): as the sequence (P46098 24-478 E231C) above, with Y125C, C208E counted along it
The assay is described as above. To be noted: Y153C, Loop E; read-out: Kd (nM) Mean ± SEM. Here is the method: as §1, §3

Assay [2] addresses T1, 5-HT3A receptors. Description: biochemical. Type of assay: binding. Details: expressed in transfected cells; host or cells: HEK 293.

T6 sequence (P46098 24-478 L121C): as the sequence (P46098 24-478 E231C) above, with L98C, C208E counted along it

For the compound `CN1CCN(c2nc3ccccc3nc2Cl)CC1` [[^3H]VUF10166] [2-chloro-3-(4-[^3H]methylpiperazin-1-yl)quinoxaline], the Kd at 5-HT3A receptors [1] is 0.16 nM; at 5-HT3A receptor E236C it was greater than 10 nM; at 5-HT3A receptor H185C it was 0.96 ± 0.39 nM; on 5-HT3A receptor T181C, greater than 10 nM; at 5-HT3A receptor F226C it was 1.59 ± 0.08 nM; at 5-HT3A receptor L126C, 0.89 ± 0.19 nM. The Kd at 5-HT3A receptor Y153C is 2.03 ± 0.33 nM; at 5-HT3A receptors [2] (5-HT3A, tritiated ligand, transfected HEK 293 cells, 0 °C, read-out: Kd (nM) saturation) it was 0.18 nM; on 5-HT3A receptors [2] (Wild Type, Table 5 series, read-out: Kd (nM) Mean ± SEM), 0.21 ± 0.04 nM.
